Biological target: T1, sGC α1/β1 heterodimer stably expressed in CHO-K1 cell line (CHO-K1/sGC) (Homo sapiens, UniProt Q02108+Q02153)
T1 construct: expressed in transfected cells
T1 sequence (Q02108 1-690): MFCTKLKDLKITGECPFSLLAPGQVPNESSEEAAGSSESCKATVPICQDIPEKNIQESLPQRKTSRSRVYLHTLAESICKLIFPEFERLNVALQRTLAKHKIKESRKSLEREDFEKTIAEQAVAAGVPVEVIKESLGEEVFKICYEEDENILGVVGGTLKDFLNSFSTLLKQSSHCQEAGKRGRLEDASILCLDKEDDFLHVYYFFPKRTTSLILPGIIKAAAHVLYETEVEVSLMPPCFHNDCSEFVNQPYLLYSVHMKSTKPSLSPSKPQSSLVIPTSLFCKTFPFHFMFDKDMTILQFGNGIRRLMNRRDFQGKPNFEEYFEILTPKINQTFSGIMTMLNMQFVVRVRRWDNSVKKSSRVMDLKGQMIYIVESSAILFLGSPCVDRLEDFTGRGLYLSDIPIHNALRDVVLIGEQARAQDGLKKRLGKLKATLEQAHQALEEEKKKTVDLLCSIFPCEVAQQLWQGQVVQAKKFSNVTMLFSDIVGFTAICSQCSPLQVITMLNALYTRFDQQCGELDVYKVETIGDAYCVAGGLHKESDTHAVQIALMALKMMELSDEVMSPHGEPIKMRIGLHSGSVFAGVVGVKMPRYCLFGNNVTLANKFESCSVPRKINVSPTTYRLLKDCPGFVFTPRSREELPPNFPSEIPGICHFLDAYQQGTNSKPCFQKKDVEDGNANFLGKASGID
T1 sequence (Q02153 1-619): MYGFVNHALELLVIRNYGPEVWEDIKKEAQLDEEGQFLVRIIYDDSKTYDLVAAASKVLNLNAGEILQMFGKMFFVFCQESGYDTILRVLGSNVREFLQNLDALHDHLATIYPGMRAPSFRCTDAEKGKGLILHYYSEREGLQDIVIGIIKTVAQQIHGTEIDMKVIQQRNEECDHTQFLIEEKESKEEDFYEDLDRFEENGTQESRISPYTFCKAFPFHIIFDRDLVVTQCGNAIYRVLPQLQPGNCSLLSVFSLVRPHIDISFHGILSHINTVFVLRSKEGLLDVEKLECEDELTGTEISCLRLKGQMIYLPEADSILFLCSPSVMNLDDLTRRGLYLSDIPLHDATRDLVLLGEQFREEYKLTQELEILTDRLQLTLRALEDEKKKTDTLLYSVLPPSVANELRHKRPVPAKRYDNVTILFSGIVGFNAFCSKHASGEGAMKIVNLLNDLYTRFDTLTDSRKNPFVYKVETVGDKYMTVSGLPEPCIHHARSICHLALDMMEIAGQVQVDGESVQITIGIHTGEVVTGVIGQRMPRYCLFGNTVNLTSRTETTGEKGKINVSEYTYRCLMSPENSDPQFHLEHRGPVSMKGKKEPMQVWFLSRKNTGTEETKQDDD
Assay: Cell-based sGC Functional Assay (CASA Assay), cGMP generation
Details: CHO-K1/sGC cells, 1 hr at 37° C., cGMP by HTRF, 4P fit; presence or absence of 1 μM DETA-NO not given; read-out: IP (nM) (inflection point)
Source text: sGC is a heme-containing enzyme that converts GTP to secondary messenger cGMP. Increases in cGMP levels affect several physiological processes including vasorelaxation through multiple downstream pathways. […] Heme-dependent activators (HDAs) preferentially activate sGC containing a ferrous heme group. To determine the effect of sGC activators on enzyme activity, the CASA assay was developed to monitor the generation of cGMP in a cell line that stably expresses the heterodimeric sGC protein.
A CHO-K1 cell line stably expressing the sGC α1/β1 heterodimer was generated using a standard transfection protocol. CHO-K1 cells were transfected with plasmids pIREShyghsGCα1 and pIRESneo-hsGCβ1 simultaneously using FUGENE reagent. Clones that stably express both subunits were selected with hygromycin and neomycin for ˜2 weeks. Clone #7 was chosen for the assay and was designated CHO-K1/sGC. CHO-K1/sGC cells were maintained in F-K12 medium containing 10% heat-inactivated Fetal Bovine Serum (FBS), 100 μg/mL penicillin/streptomycin, 0.5 mg/mL hygromycin and 0.25 mg/mL G418. The cells were then cryopreserved in LN2. On the day of the assay, cells thawed and resuspended in EBSS Assay Buffer (Sigma, E3024) supplemented with 5 mM MgCl2, 10 mM HEPES (4-(2-hydroxyethyl)piperazine-1-ethanesulfonic acid) and 0.05% BSA (bovine serum albumin) (EAB) and cell density was then adjusted to 4×10^5/mL with EAB, IBMX (3-isobutyl-1-methylxanthin, 0.5 mM) was added to inhibit degradation of cGMP. Compounds were diluted from DMSO stock solutions and added to the assay at a final DMSO concentration of 2.5%. Cells were incubated with compounds in the presence and absence of 1 μM of Diethylenetriamine/nitric oxide adduct (DETA-NO; Sigma, 17018) for 1 hr at 37° C. At the end of the incubation period, the reaction was terminated and the cells were lysed with the detection reagents from Cisbio Kits. The level of intracellular cGMP was determined using an HTRF-based assay kit (CisBio, 62GM2PEC), which detects the displacement of a fluorescence labeled cGMP from its specific antibody. The cGMP produced by test compounds was directly compared to the maximum cGMP production (this value was set to equal 100% activation.) of the published sGC-HDA Compound A:
[drawing 300] (Example 1 in WO 2010/065275, published Jun. 10, 2010). The test compounds' activities were then expressed as a percentage of Compound A, the standard in every experiment. This percent activation was calculated either in the presence or absence of DETA-NO which was then plotted. IP and maximum fold induction was derived using ADA analysis software for 4P fit.
The compounds in the Examples of the instant invention had inflection points (IP) less than or equal to 10 μM and more particularly less than or equal to about 1 μM.

In order of falling EC50:
1. Nc1nc(-c2cn3ncnc3c(CCC(F)(F)F)n2)nc2c1C(c1ccc(C(F)(F)F)cn1)(C1CC1)C(=O)N2 (centres unmarked) [Example 80A, 4-amino-5-cyclopropyl-5-(5-(trifluoromethyl)pyridin-2-yl)-2-(8-(3,3,3-trifluoropropyl)-[1,2,4]triazolo[1,5-a]pyrazin-6-yl)-5H-pyrrolo[2,3-d]pyrimidin-6(7H)-one]  2490 nM
2. CCCCc1nc(-c2nc(O)c3c(n2)NC(=O)C3(C)c2ccc(C)cn2)cn2ncnc12 (centres unmarked) [Example 161B, 2-(8-butyl-[1,2,4]triazolo[1,5-a]pyrazin-6-yl)-4-hydroxy-5-methyl-5-(5-methylpyridin-2-yl)-5H-pyrrolo[2,3-d]pyrimidin-6(7H)-one]  303 nM
3. Nc1nc(-c2cn3ncnc3c(CCC(F)(F)F)n2)nc2c1C(c1ccc(F)c(F)c1)(C1CC1)C(=O)N2 (centres unmarked) [Example 83A, 4-amino-5-cyclopropyl-5-(3,4-difluorophenyl)-2-(8-(3,3,3-trifluoropropyl)-[1,2,4]triazolo[1,5-a]pyrazin-6-yl)-5H-pyrrolo[2,3-d]pyrimidin-6(7H)-one]  270 nM
4. CCCc1nc(-c2nc(N)c3c(n2)NC(=O)C3(c2ccc(F)cn2)C2CC2)cn2ncnc12 (centres unmarked) [Example 59A, 4-amino-5-cyclopropyl-5-(5-fluoropyridin-2-yl)-2-(8-propyl-[1,2,4]triazolo[1,5-a]pyrazin-6-yl)-5H-pyrrolo[2,3-d]pyrimidin-6(7H)-one]  263 nM
5. Nc1nc(-c2cn3ncnc3c(CCCC(F)(F)F)n2)nc2c1C(c1ccccn1)(C1CC1)C(=O)N2 (centres unmarked) [Example 115A, 4-amino-5-cyclopropyl-5-(pyridin-2-yl)-2-(8-(4,4,4-trifluorobutyl)-[1,2,4]triazolo[1,5-a]pyrazin-6-yl)-5H-pyrrolo[2,3-d]pyrimidin-6(7H)-one]  233 nM
6. CC1(c2ccc(Cl)cc2)C(=O)Nc2nc(-c3cn4ncnc4c(CCCC(F)(F)F)n3)nc(O)c21 (centres unmarked) [Example 142A, 5-(4-chlorophenyl)-4-hydroxy-5-methyl-2-(8-(4,4,4-trifluorobutyl)-[1,2,4]triazolo[1,5-a]pyrazin-6-yl)-5H-pyrrolo[2,3-d]pyrimidin-6(7H)-one]  207 nM
7. Cc1ccc(C2(C3CC3)C(=O)Nc3nc(-c4cn5ncnc5c(CCCC(F)(F)F)n4)nc(N)c32)nc1 (racemic) [Example 47B, 4-amino-5-cyclopropyl-5-(5-methylpyridin-2-yl)-2-(8-(4,4,4-trifluorobutyl)-[1,2,4]triazolo[1,5-a]pyrazin-6-yl)-5H-pyrrolo[2,3-d]pyrimidin-6(7H)-one]  144 nM
8. CCCCc1nc(-c2nc(O)c3c(n2)NC(=O)C3(C)c2cccc(F)c2)cn2ncnc12 (centres unmarked) [Example 171A, 2-(8-Butyl-[1,2,4]triazolo[1,5-a]pyrazin-6-yl)-5-(3-fluorophenyl)-4-hydroxy-5-methyl-5,7-dihydro-6H-pyrrolo[2,3-d]pyrimidin-6-one]  137 nM
9. COc1ccc(C2(C)C(=O)Nc3nc(-c4cn5ncnc5c(CCCC(F)(F)F)n4)nc(N)c32)nc1 (centres unmarked) [Example 40A, 4-amino-5-(5-methoxypyridin-2-yl)-5-methyl-2-(8-(4,4,4-trifluorobutyl)-[1,2,4]triazolo[1,5-a]pyrazin-6-yl)-5H-pyrrolo[2,3-d]pyrimidin-6(7H)-one]  98.9 nM
10. CC1(c2ccc(Cl)cc2)C(=O)Nc2nc(-c3cn4ncnc4cn3)nc(N)c21 (centres unmarked) [Example 94A, 2-([1,2,4]triazolo[1,5-a]pyrazin-6-yl)-4-amino-5-(4-chlorophenyl)-5-methyl-5H-pyrrolo[2,3-d]pyrimidin-6(7H)-one]  79.4 nM
11. CC1(c2cncc(F)c2)C(=O)Nc2nc(-c3cn4ncnc4c(CCC(F)(F)C(F)(F)F)n3)nc(N)c21 (centres unmarked) [Example 9A, 4-amino-5-(5-fluoropyridin-3-yl)-5-methyl-2-(8-(3,3,4,4,4-pentafluorobutyl)-[1,2,4]triazolo[1,5-a]pyrazin-6-yl)-5H-pyrrolo[2,3-d]pyrimidin-6(7H)-one]  63 nM
12. CC1(c2ccc(C#N)cn2)C(=O)Nc2nc(-c3cn4ncnc4c(CCC(F)(F)C(F)(F)F)n3)nc(N)c21 (centres unmarked) [Example 18A, 6-(4-amino-5-methyl-6-oxo-2-(8-(3,3,4,4,4-pentafluorobutyl)-[1,2,4]triazolo[1,5-a]pyrazin-6-yl)-6,7-dihydro-5H-pyrrolo[2,3-d]pyrimidin-5-yl)nicotinonitrile]  38.6 nM
13. Cc1ccc(C2(C3CC3)C(=O)Nc3nc(-c4cn5ncnc5c(CCC(F)(F)C(F)(F)F)n4)nc(N)c32)nc1 (racemic) [Example 17B, 4-amino-5-cyclopropyl-5-(5-methylpyridin-2-yl)-2-(8-(3,3,4,4,4-pentafluorobutyl)-[1,2,4]triazolo[1,5-a]pyrazin-6-yl)-5H-pyrrolo[2,3-d]pyrimidin-6(7H)-one]  36.1 nM
14. CCCCc1nc(-c2nc(N)c3c(n2)NC(=O)C3(c2ccc(F)cn2)C2CC2)cn2ncnc12 (centres unmarked) [Example 66A, 4-amino-2-(8-butyl-[1,2,4]triazolo[1,5-a]pyrazin-6-yl)-5-cyclopropyl-5-(5-fluoropyridin-2-yl)-5H-pyrrolo[2,3-d]pyrimidin-6(7H)-one]  34.2 nM
15. CCCCc1nc(-c2nc(O)c3c(n2)NC(=O)[C@@]3(C)c2ccc(F)cc2)cn2ncnc12 [Example 154A, (S)-2-(8-butyl-[1,2,4]triazolo[1,5-a]pyrazin-6-yl)-5-(4-fluorophenyl)-4-hydroxy-5-methyl-5,7-dihydro-6H-pyrrolo[2,3-d]pyrimidin-6-one]  27.2 nM
16. CCCCc1nc(-c2nc(N)c3c(n2)NC(=O)C3(c2ccccn2)C2CC2)cn2ncnc12 (centres unmarked) [Example 116A, 4-amino-2-(8-butyl-[1,2,4]triazolo[1,5-a]pyrazin-6-yl)-5-cyclopropyl-5-(pyridin-2-yl)-5H-pyrrolo[2,3-d]pyrimidin-6(7H)-one]  19.7 nM
17. CC1(c2ccccc2)C(=O)Nc2nc(-c3cn4ncnc4c(CCC(F)(F)C(F)(F)F)n3)nc(N)c21 (centres unmarked) [Example 12B, 4-amino-5-methyl-2-(8-(3,3,4,4,4-pentafluorobutyl)-[1,2,4]triazolo[1,5-a]pyrazin-6-yl)-5-phenyl-5H-pyrrolo[2,3-d]pyrimidin-6(7H)-one]  11.1 nM

Same assay, conditions: CHO-K1/sGC cells, 1 hr at 37° C., cGMP by HTRF; presence or absence of 1 μM DETA-NO not given; read-out: % Act. (percent activation relative to maximum cGMP production of Compound A = 100%)

In order of rising Emax:
1. CCCCc1nc(-c2nc(O)c3c(n2)NC(=O)C3(C)c2cccc(F)c2)cn2ncnc12 (centres unmarked) [Example 171A, 2-(8-Butyl-[1,2,4]triazolo[1,5-a]pyrazin-6-yl)-5-(3-fluorophenyl)-4-hydroxy-5-methyl-5,7-dihydro-6H-pyrrolo[2,3-d]pyrimidin-6-one]  90%
2. CCCCc1nc(-c2nc(O)c3c(n2)NC(=O)[C@@]3(C)c2ccc(F)cc2)cn2ncnc12 [Example 154A, (S)-2-(8-butyl-[1,2,4]triazolo[1,5-a]pyrazin-6-yl)-5-(4-fluorophenyl)-4-hydroxy-5-methyl-5,7-dihydro-6H-pyrrolo[2,3-d]pyrimidin-6-one]  100%
3. Nc1nc(-c2cn3ncnc3c(CCC(F)(F)F)n2)nc2c1C(c1ccc(F)c(F)c1)(C1CC1)C(=O)N2 (centres unmarked) [Example 83A, 4-amino-5-cyclopropyl-5-(3,4-difluorophenyl)-2-(8-(3,3,3-trifluoropropyl)-[1,2,4]triazolo[1,5-a]pyrazin-6-yl)-5H-pyrrolo[2,3-d]pyrimidin-6(7H)-one]  100%

— patent US9822130B2, “Triazolo-pyrazinyl derivatives useful as soluble guanylate cyclase activators” (Merck Sharp & Dohme Corp., priority 2014, dated 2017)
